Test results as given in ChEMBL document CHEMBL1142108, “Carbamidocyclophanes A-E, chlorinated paracyclophanes with cytotoxic and antibiotic activity from the Vietnamese cyanobacterium Nostoc sp” (J Nat Prod, 2007).
Converted amounts (≈) assume the structure as drawn.

How the values were obtained:
Staphylococcus aureus = test: Antibacterial activity against Staphylococcus aureus ATCC 6538; type: functional
[1] = Cytotoxicity against human F1 cells after 48 hrs; type: cell-based; settings: F1, 48 h
MCF7 = test: Cytotoxicity against MCF7 cells after 48 hrs; type: cell-based; settings: Homo sapiens, MCF7, 48 h

MIC (Staphylococcus aureus)	SMILES	IC50 [1]	IC50 (MCF7)
40 µM (≈ 31 µg/mL)	C[C@H]1CCCCC(CCCCCl)c2c(O)cc(cc2O)[C@H](OC(N)=O)[C@@H](C)CCCCC(CCCC(Cl)Cl)c2c(O)cc(cc2O)[C@@H]1OC(N)=O (some centres undefined) [CARBAMIDOCYCLOPHANE B]	4.2 µM	1.8 µM
100 µM (≈ 80.9 µg/mL)	C[C@H]1CCCCC(CCCC(Cl)Cl)c2c(O)cc(cc2O)[C@H](OC(N)=O)[C@@H](C)CCCCC(CCCC(Cl)Cl)c2c(O)cc(cc2O)[C@@H]1OC(N)=O (some centres undefined) [CARBAMIDOCYCLOPHANE A]	3.3 µM	0.86 µM
60 µM (≈ 44.4 µg/mL)	CCCCC1CCCC[C@H](C)[C@@H](OC(N)=O)c2cc(O)c(c(O)c2)C(CCCC(Cl)Cl)CCCC[C@H](C)[C@@H](OC(N)=O)c2cc(O)c1c(O)c2 (some centres undefined) [CARBAMIDOCYCLOPHANE C]	5.1 µM	2.2 µM
